Results published in US20210369650A1, “TREATMENT OF INFLAMMATORY CONDITIONS” (UNION therapeutics A/S, priority 2018, published 2021).

Experiments:
[1] = system: lesional skin of patients with moderate atopic dermatitis; experiment: Gene expression by microarray (Affymetrix U133A Plus 2) in lesional skin biopsies, Phase II atopic dermatitis study; type: in vivo, human; settings: microarray fold change
Text: (§1) 31 patients with moderate atopic dermatitis (Investigator Global Assessment [IGA] of 3) were included in this double-blind, randomized, intraindividual vehicle-controlled, Phase 2 study to evaluate the efficacy and safety of topically applied niclosamide. Patients had at least 2 areas of at least 3×3-cm of atopic dermatitis with a Total Sign Score (TSS) of […] discontinued the study before Day 22.
(§2) Patients received topical applications of the niclosamide 2% composition and vehicle once daily for 3 weeks, followed by a 1-week follow up period. Topical niclosamide 2% and vehicle was applied on two separate target lesions of atopic dermatitis (lesions of at least 3×3-cm that are at least 2 cm apart, excluding the face, scalp, genitals, hands, and feet). The application areas (5×5-cm) were randomized (1:1) to once daily application of niclosamide 2% or vehicle at 5 mg/cm^2/day without occlusion 6 days per week. Patients came to the study site for all study product application for a total of 3 weeks.
(§3) Three skin biopsies were collected in all patients (one from lesional skin at baseline, pre-dosing at Day 1, and two from lesional skin at Day 22 (one where topical niclosamide 2% had been applied and one where the vehicle had been applied). The lesional skin biopsies were analysed for skin thickness and inflammation biomarkers.
(§4) Skin barrier and inflammation biomarker levels were determined from lesional skin biopsies from application areas.
(§5) The skin biopsy samples were analysed by immunohistochemistry (IHC), and by gene expression studies by RT-PCR using TaqMan Low Density Array (TLDA), and by microarray using Affymetrix U133A Plus 2. The immunohistochemistry (IHC) was used to analyse cell biomarkers. The methodologies as disclosed by Guttman-Yassky et al, “Major differences in inflammatory dendritic cells and their products distinguish atopic dermatitis from psoriasis”, The Journal of Allergy and Clinical Immunology, vol. 119, issue 5, pages 1210-1217, 2007, were followed except for that U133A Plus 2-set Gene Chip probe arrays was used instead of U95A-set Gene Chip probe arrays.
Experimental design: The hybridization strategy was in concordance with experimental design principles, by for example keeping all samples from the same patient in the same date, and always include samples from every treatment arm/group.
Quality Control and Pre-processing: Quality control of microarray chips were carried out using standard QC metrics and R package microarray Quality Control. Expression measures were obtained using GCRMA algorithm (Wu & Irizarry, 2004). Several visual and modelling techniques were used to elucidate if batch effect existed. Principal Component analysis plots were used to detect if any evident batch effect existed. If such batch effects were found, they were adjusted using Combat, an empirical Bayes method for adjusting data for batch effects that is robust to outliers in small sample sizes (Johnson, Li, & Rabinovic, 2007). The implementation of Combat by package sva was used.
Probe-sets with at least 5% samples with expression larger than 3 (in log 2-scale) were kept for further analysis. Expression values were modelled using mixed-effect models with fixed factors Visit and Treatment Area and a random effect for each patient. Fold changes for the comparisons of interest were estimated and hypothesis testing was conducted on such comparisons using contrasts under the general framework for linear models in limma package. The inter-replicate correlation was computed by Duplicate Correlation function and the linear model was estimated by ImFit. P-values from the moderated (paired) t-test were adjusted for multiple hypotheses using the Benjamini-Hochberg procedure, which controls for FDR.

[2] = system: lesional skin of patients with moderate atopic dermatitis; experiment: Skin thickness in lesional skin biopsies at Day 22; type: in vivo, human; settings: lesional skin biopsy, Day 22, 2% niclosamide
Procedure: as §2, with “weeks. Three skin biopsies were collected in all patients (one from lesional skin at baseline, pre-dosing at Day 1, and two from lesional skin at Day 22 (one where topical niclosamide 2% had been applied and one where the vehicle had been applied). The lesional skin biopsies were analysed for skin thickness and inflammation biomarkers.” for “weeks.”

[3] = system: lesional skin of patients with moderate atopic dermatitis; experiment: Immunohistochemistry (IHC) of cell markers in lesional skin biopsies, Phase II atopic dermatitis study; type: in vivo, human; settings: lesional skin biopsy, Day 22, 2% niclosamide
Text: as §1, §2, §3, §5

[4] = system: lamina propria T cells (expressing CD3); settings: WO 2017/040864; cited from earlier work
[5] = system: dendritic cell; settings: in-vitro, Wu et al.; cited from earlier work
[6] = system: lesional skin of patients with moderate atopic dermatitis; experiment: Gene expression by qRT-PCR (TLDA) in lesional skin biopsies, Phase II atopic dermatitis study; type: in vivo, human; settings: qRT-PCR fold change, lesional skin biopsy, Day 22, niclosamide 2% once daily
Text: as §1, §2, §3, §4, §5
Expression values (threshold cycle [Ct]) were normalized to Rplp0 by negatively transforming the Ct values to −dCt (IL17A was normalized to hARP, as analysed by qPCR). The undetected −dCt values were estimated for each gene as the 20% of the minimum across all samples. qRT-PCR expression data were modelled using a mixed effect model with Visit and Treatment Area as a fixed effect and a random intercept for each patient. This formulation intrinsically models the within patient correlation structure as in the case of a paired t-test. This approach introduces less bias than restricting the analysis for those patients who completed the study. Contrasts were used to estimate the fold changes with treatment within each treatment group and conduct hypothesis testing.

[7] = system: lesional AD skin; settings: Brunner et al; cited from earlier work
[8] = lesional skin biopsy, Day 22, niclosamide 2% once daily
[9] = niclosamide relative to vehicle, Day 22, 2% niclosamide, p<0.05

O=C(Nc1ccc([N+](=O)[O-])cc1Cl)c1cc(Cl)ccc1O [Niclosamide, niclosamide]
ACOX2 Niclosamide vs Predose [1, 8]: 1.40
ACOX2 Vehicle vs. Niclosamide [1, 8]: −1.40
CCL13 Niclosamide vs Predose [1, 8]: −1.40
CCL18 Niclosamide vs Predose [1, 8]: −1.70
CCL20 Vehicle vs. Niclosamide [1, 8]: 2.00
CCR1 Niclosamide vs Predose [1, 8]: −1.90
CCR5 Niclosamide vs Predose [1, 8]: −1.40
CD86 Niclosamide vs Predose [1, 8]: −1.60
CXCL1 Vehicle vs. Niclosamide [1, 8]: 2.10
FA2H Niclosamide vs Predose [1, 8]: 1.50
IFNGR2 Vehicle vs. Niclosamide [1, 8]: 1.10
IL4R Niclosamide vs Predose [1, 8]: −1.80
KRT79 Vehicle vs. Niclosamide [1, 8]: −2.00
S100A12 Vehicle vs. Niclosamide [1, 8]: 2.30
SPTLC3 Vehicle vs. Niclosamide [1, 8]: −1.30
CXCL1 downregulated compared to vehicle [1, 9]: −2.10
S100A12 downregulated compared to vehicle [1, 9]: −2.30
skin thickness compared to baseline and compared to vehicle [2]: No differences
Langerhans cells: langerin/CD207, compared to baseline [3]: Significant reductions
dendritic cells: CD11c, compared to baseline [3]: Significant reductions
dendritic cells: FceR1 in epidermis, compared to baseline [3]: Significant reductions
total amount of T cells (CD3) in dermis and epidermis, compared to baseline [3]: No significant change
effect on lamina propria T cells (expressing CD3) isolated from IBD patients [4]: kills
lipopolysaccharide (LPS)-induced dendritic cell maturation and cytokine costimulatory molecule and MHC molecule expression [5]: inhibitory action
CXCL1 Niclosamide vs. Predose [6]: −2.80
CXCL10 Niclosamide vs. Vehicle [6]: −1.10
FLG Niclosamide vs. Predose [6]: 1.50
FLG Niclosamide vs. Vehicle [6]: 1.30
IL2 Niclosamide vs. Predose [6]: −1.20
IL17A Niclosamide vs. Vehicle [6]: −1.40
KRT16 Niclosamide vs. Vehicle [6]: −1.60
MMP12 Niclosamide vs. Vehicle [6]: −1.90
S100A7 Niclosamide vs. Vehicle [6]: −2.20
FLG Niclosamide vs. Predose ([6]; listed as niclosamide): increased significantly
LOR Niclosamide vs. Predose ([6]; listed as niclosamide): increased significantly

dupilumab: inhibits interleukin-4 and interleukin-13 signalling by binding to interleukin-4 receptor a; FDA approved for atopic dermatitis
expression of Th2-associated molecules, such as CCL17, CCL18, and CCL26 [7]: reduction
